Results reported in patent US20050239826A1 (Boehringer Ingelheim International GmbH, priority 2004, published 2005).
Values belong to the molecule of their own block, whether it stands above or below them.

Assays:
[1] = rats, intraventricular administration, compared with control animals; cited from earlier work
hMCH-1R = target: T1, hMCH-1R (Homo sapiens, UniProt Q99705); assay: MCH-1 receptor binding test (125I-MCH binding to membranes of hMCH-1R transfected CHO/Galpha16 cells); conditions: 100 pM 125I-MCH
T1 construct: expressed in transfected cells
Experimental: After the incubation the reaction is filtered using a cell harvester through 0.5% PEI treated fibreglass filters (GF/B, Unifilter Packard). The membrane-bound radioactivity retained on the filter is then determined after the addition of scintillator substance (Packard Microscint 20) in a measuring device (TopCount of Packard). […] The analysis of the concentration binding curve is carried out on the assumption of one receptor binding site.

[2] = long term trials, treated animals; cited from earlier work
[3] = rats; cited from earlier work

T1 sequence (Q99705 whole entry): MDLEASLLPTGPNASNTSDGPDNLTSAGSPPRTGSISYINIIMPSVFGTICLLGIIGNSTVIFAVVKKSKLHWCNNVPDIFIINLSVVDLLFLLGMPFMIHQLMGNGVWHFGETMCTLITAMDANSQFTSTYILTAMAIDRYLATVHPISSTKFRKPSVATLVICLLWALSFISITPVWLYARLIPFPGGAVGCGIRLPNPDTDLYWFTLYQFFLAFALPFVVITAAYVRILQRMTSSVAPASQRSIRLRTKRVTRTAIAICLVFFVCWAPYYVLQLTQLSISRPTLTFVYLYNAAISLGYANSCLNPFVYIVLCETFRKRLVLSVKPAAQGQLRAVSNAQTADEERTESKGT

SMILES: CSCC[C@@H]1NC(=O)[C@@H](NC(=O)[C@H](CCCNC(=N)N)NC(=O)[C@H](CC(C)C)NC(=O)[C@H](CCSC)NC(=O)[C@H](CC(=O)O)NC(=O)[C@H](Cc2ccccc2)NC(=O)[C@@H](N)CC(=O)O)CSSC[C@@H](C(=O)N[C@@H](Cc2c[nH]c3ccccc23)C(=O)N[C@@H](CCC(N)=O)C(=O)N[C@H](C(=O)O)C(C)C)NC(=O)[C@@H]2CCCN2C(=O)[C@H](CCCNC(=N)N)NC(=O)[C@H](Cc2ccc(O)cc2)NC(=O)[C@H](C(C)C)NC(=O)[C@H](CCCNC(=N)N)NC(=O)CNC(=O)[C@H](CC(C)C)NC1=O [MCH, Melanin-concentrating hormone]
food intake [1]: food intake was increased

IC50 (hMCH-1R): 13.8 nM
SMILES: OCCCN(CCOc1ccc(C#Cc2ccc(-c3ccc(Cl)cc3)cn2)cc1)CC1(O)CC1 [Example 2.20, 1-{[(2-{4-[5-(4-chloro-phenyl)-pyridin-2-ylethynyl]-phenoxy}-ethyl)-(3-hydroxy-propyl)-amino]-methyl}-cyclopropanol]

IC50 (hMCH-1R): 10.9 nM
SMILES: Cc1cc(C#Cc2ccc(-c3ccc(Cl)cc3)cn2)ccc1OCCN1CC[C@H](O)[C@](C)(O)C1 [Example 1.5, (3R,4S)-1-(2-{4-[5-(4-chloro-phenyl)-pyridin-2-ylethynyl]-2-methyl-phenoxy}-ethyl)-3-methyl-piperidine-3,4-diol]

SMILES: COCC1=C(C(=O)OC)[C@H](c2ccc(F)c(F)c2)N(C(=O)NCCCN2CCC(c3cccc(NC(C)=O)c3)CC2)C(=O)N1 [SNAP-7941]
body weight [2]: lose significant amounts of weight
effects in behavioural experiments [3]: anxiolytic and antidepressant effects
